Laboratory results published in patent US20100305098A1, “METHODS OF USE” (priority 2007, published 2010).

Legend:
NK2 = biological target: T1, NK2 (Homo sapiens, UniProt P21452); experiment: FLIPR functional screen; type: cell-based; settings: antagonist mode
T1 construct: Millipore

ADRA2A = biological target: T2, ADRA2A (Homo sapiens, UniProt P08913); experiment: FLIPR functional screen; type: cell-based; settings: antagonist mode
T2 construct: purchased Millipore (outsourced screen)

GNRHR = biological target: T3, GNRHR (Homo sapiens, UniProt P30968); experiment: FLIPR functional screen; type: cell-based; settings: antagonist mode
T3 construct: Millipore

OPRM1 = biological target: T4, OPRM1 (Homo sapiens, UniProt P35372); experiment: FLIPR functional screen; type: cell-based; settings: antagonist mode
T4 construct: Millipore

ADRB3 = biological target: T5, ADRB3 (Homo sapiens, UniProt P13945); experiment: FLIPR functional screen; type: cell-based; settings: antagonist mode
T5 construct: purchased Millipore (outsourced screen)

NOP = biological target: T6, NOP (Homo sapiens, UniProt P41146); experiment: FLIPR functional screen; type: cell-based; settings: antagonist mode
T6 construct: Millipore

OT = biological target: T7, OT (Homo sapiens, UniProt P30559); experiment: FLIPR functional screen; type: cell-based; settings: antagonist mode
T7 construct: Millipore

Prostanoid EP2 = biological target: T8, Prostanoid EP2 (Homo sapiens, UniProt P43116); experiment: Competitive radioligand binding (MDS Pharma)
T8 construct: purchased MDS Pharma (outsourced assay)

EP4 [1] = biological target: T9, EP4 (Homo sapiens, UniProt P35408); experiment: PGE2 induced CRE-PLAP reporter assay in SE302 cells; type: cell-based; settings: read-out: IC50 against PGE2 induced CRE-PLAP reporter activity
T9 construct: SE302 cells that express endogenous EP4; endogenous in cells; host or cells: SE302 cells
Procedure: CRE-PLAP reporter assay. SE302 cells that express endogenous EP4 were stimulated with PGE2 in the presence or absence of ER-819762 for overnight, and PLAP activity was measured.

C3AR = biological target: T10, C3AR (Homo sapiens, UniProt Q16581); experiment: FLIPR functional screen; type: cell-based; settings: antagonist mode
T10 construct: Millipore

CGRP1 = biological target: T11, CGRP1 (Homo sapiens, UniProt O60894+Q16602); experiment: FLIPR functional screen; type: cell-based; settings: antagonist mode
T11 construct: Millipore

P2Y1 = biological target: T12, P2Y1 (Homo sapiens, UniProt P47900); experiment: FLIPR functional screen; type: cell-based; settings: antagonist mode
T12 construct: Millipore

A3 = biological target: T13, A3 (Homo sapiens, UniProt P0DMS8); experiment: FLIPR functional screen; type: cell-based; settings: antagonist mode
T13 construct: purchased Millipore (outsourced screen)

D2 = biological target: T14, D2 (Homo sapiens, UniProt P14416); experiment: FLIPR functional screen; type: cell-based; settings: antagonist mode
T14 construct: Millipore

CB1 = biological target: T15, CB1 (Homo sapiens, UniProt P21554); experiment: FLIPR functional screen; type: cell-based; settings: antagonist mode
T15 construct: Millipore

BB1 = biological target: T16, BB1 (Homo sapiens, UniProt P28336); experiment: FLIPR functional screen; type: cell-based; settings: antagonist mode
T16 construct: Millipore

Prostanoid DP = biological target: T17, Prostanoid DP (Homo sapiens, UniProt Q13258); experiment: Competitive radioligand binding (MDS Pharma)
T17 construct: purchased MDS Pharma (outsourced assay)

BB2 = biological target: T18, BB2 (Homo sapiens, UniProt P30550); experiment: FLIPR functional screen; type: cell-based; settings: antagonist mode
T18 construct: Millipore

LPA3 = biological target: T19, LPA3 (Homo sapiens, UniProt Q9UBY5); experiment: FLIPR functional screen; type: cell-based; settings: antagonist mode
T19 construct: Millipore

V1A = biological target: T20, V1A (Homo sapiens, UniProt P37288); experiment: FLIPR functional screen; type: cell-based; settings: antagonist mode
T20 construct: Millipore

PAF = biological target: T21, PAF (Homo sapiens, UniProt P25105); experiment: FLIPR functional screen; type: cell-based; settings: antagonist mode
T21 construct: Millipore

ADRA1A = biological target: T22, ADRA1A (Homo sapiens, UniProt P35348); experiment: FLIPR functional screen; type: cell-based; settings: antagonist mode
T22 construct: purchased Millipore (outsourced screen)

TRH = biological target: T23, TRH (Homo sapiens, UniProt P34981); experiment: FLIPR functional screen; type: cell-based; settings: antagonist mode
T23 construct: Millipore

GPR43 = biological target: T24, GPR43 (Homo sapiens, UniProt O15552); experiment: FLIPR functional screen; type: cell-based; settings: antagonist mode
T24 construct: Millipore

PK1 = biological target: T25, PK1 (Homo sapiens, UniProt Q8TCW9); experiment: FLIPR functional screen; type: cell-based; settings: PK-1, antagonist mode
T25 construct: Millipore

CRF2 = biological target: T26, CRF2 (Homo sapiens, UniProt Q13324); experiment: FLIPR functional screen; type: cell-based; settings: antagonist mode
T26 construct: Millipore

MC4 = biological target: T27, MC4 (Homo sapiens, UniProt P32245); experiment: FLIPR functional screen; type: cell-based; settings: antagonist mode
T27 construct: Millipore

GPR40 = biological target: T28, GPR40 (Homo sapiens, UniProt O14842); experiment: FLIPR functional screen; type: cell-based; settings: antagonist mode
T28 construct: Millipore

CCK1 = biological target: T29, CCK1 (Homo sapiens, UniProt P32238); experiment: FLIPR functional screen; type: cell-based; settings: antagonist mode
T29 construct: Millipore

TP = biological target: T30, TP (Homo sapiens, UniProt P21731); experiment: FLIPR functional screen; type: cell-based; settings: antagonist mode
T30 construct: Millipore

CCR9 = biological target: T31, CCR9 (Homo sapiens, UniProt P51686); experiment: FLIPR functional screen; type: cell-based; settings: antagonist mode
T31 construct: Millipore

M5 = biological target: T32, M5 (Homo sapiens, UniProt P08912); experiment: FLIPR functional screen; type: cell-based; settings: antagonist mode
T32 construct: Millipore

GABA = biological target: T33, GABA (Homo sapiens, UniProt Q9UBS5); experiment: FLIPR functional screen; type: cell-based; settings: antagonist mode
T33 construct: Millipore

EP4 [2] = biological target: T9, EP4; experiment: FLIPR functional screen; type: cell-based
[3] = biological target: T34, Leukotriene, Cysteinyl CysLT1 (Homo sapiens, UniProt Q9Y271); experiment: Competitive radioligand binding (MDS Pharma)
T34 construct: purchased MDS Pharma (outsourced assay)

ETA = biological target: T35, ETA (Homo sapiens, UniProt P25101); experiment: FLIPR functional screen; type: cell-based; settings: antagonist mode
T35 construct: Millipore

[4] = biological target: T36, Leukotriene, Cysteinyl CysLT2 (Homo sapiens, UniProt Q9NS75); experiment: Competitive radioligand binding (MDS Pharma)
T36 construct: purchased MDS Pharma (outsourced assay)

S1P4 = biological target: T37, S1P4 (Homo sapiens, UniProt O95977); experiment: FLIPR functional screen; type: cell-based; settings: antagonist mode
T37 construct: Millipore

T9 sequence (P35408 whole entry): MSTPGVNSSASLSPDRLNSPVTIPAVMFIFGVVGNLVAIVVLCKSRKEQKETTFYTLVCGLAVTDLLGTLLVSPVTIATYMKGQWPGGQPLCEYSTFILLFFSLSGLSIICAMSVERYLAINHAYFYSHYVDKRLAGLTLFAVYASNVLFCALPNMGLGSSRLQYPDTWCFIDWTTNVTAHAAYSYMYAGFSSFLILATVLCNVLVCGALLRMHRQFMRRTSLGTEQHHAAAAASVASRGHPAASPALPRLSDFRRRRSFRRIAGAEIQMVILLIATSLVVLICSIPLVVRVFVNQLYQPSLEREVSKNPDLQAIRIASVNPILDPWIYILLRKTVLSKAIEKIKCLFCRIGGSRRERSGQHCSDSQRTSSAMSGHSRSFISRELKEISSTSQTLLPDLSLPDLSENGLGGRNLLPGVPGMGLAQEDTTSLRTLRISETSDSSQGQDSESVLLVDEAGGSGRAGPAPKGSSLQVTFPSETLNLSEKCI
T36 sequence (Q9NS75 whole entry): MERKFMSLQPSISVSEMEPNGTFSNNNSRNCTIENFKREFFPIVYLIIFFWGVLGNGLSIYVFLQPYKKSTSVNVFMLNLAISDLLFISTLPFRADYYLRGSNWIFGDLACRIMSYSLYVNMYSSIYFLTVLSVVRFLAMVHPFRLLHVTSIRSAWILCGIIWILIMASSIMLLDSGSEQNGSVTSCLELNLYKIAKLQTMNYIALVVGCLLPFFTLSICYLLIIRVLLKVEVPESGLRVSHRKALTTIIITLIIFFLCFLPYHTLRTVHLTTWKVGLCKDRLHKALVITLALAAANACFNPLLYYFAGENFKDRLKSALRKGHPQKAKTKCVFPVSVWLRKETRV
T17 sequence (Q13258 whole entry): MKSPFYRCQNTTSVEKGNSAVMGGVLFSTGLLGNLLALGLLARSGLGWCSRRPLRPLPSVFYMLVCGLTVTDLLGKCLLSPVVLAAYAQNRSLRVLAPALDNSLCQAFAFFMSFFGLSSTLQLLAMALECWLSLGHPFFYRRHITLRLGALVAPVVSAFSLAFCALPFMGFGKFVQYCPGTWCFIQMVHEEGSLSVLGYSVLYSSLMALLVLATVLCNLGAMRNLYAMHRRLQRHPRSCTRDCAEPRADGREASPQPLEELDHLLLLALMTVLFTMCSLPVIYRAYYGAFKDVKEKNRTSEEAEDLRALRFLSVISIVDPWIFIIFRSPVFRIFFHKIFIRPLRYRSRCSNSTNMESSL
T34 sequence (Q9Y271 whole entry): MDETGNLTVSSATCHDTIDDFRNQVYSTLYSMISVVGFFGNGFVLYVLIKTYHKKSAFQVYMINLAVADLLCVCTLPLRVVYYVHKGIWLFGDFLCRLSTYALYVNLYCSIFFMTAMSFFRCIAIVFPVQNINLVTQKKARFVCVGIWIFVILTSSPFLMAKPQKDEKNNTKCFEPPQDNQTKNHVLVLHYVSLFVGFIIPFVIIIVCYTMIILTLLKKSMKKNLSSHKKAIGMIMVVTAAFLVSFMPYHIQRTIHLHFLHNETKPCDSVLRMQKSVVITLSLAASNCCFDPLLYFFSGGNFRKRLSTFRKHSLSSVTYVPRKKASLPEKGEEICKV
T8 sequence (P43116 whole entry): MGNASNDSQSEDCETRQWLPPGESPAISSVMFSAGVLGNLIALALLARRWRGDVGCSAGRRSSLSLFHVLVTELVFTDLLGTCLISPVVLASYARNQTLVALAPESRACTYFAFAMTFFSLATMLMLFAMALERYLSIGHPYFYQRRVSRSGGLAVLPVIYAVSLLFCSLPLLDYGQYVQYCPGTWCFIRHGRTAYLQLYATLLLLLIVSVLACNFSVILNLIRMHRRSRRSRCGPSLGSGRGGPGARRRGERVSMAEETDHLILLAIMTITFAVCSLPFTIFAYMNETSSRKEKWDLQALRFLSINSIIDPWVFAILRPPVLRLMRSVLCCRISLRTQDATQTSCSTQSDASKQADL
T21 sequence (P25105 whole entry): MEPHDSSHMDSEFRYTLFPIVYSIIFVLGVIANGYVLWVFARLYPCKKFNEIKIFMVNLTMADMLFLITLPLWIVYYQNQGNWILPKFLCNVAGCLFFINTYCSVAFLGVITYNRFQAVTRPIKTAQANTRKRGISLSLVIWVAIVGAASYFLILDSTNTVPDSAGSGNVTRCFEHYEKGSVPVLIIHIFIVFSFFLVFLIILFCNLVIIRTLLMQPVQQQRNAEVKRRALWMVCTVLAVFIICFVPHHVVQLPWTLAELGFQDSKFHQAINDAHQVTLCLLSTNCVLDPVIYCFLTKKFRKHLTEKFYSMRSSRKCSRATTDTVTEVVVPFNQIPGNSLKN
T23 sequence (P34981 whole entry): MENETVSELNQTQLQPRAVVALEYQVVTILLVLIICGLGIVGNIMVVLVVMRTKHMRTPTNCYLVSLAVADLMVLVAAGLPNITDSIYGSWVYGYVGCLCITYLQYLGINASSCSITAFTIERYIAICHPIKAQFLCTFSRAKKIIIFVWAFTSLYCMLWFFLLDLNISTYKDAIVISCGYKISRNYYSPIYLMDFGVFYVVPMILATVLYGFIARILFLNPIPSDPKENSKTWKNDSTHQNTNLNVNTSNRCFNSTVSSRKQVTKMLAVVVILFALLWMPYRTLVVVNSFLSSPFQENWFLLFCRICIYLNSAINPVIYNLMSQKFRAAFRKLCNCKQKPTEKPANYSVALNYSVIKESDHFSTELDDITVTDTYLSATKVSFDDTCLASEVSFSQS
T7 sequence (P30559 whole entry): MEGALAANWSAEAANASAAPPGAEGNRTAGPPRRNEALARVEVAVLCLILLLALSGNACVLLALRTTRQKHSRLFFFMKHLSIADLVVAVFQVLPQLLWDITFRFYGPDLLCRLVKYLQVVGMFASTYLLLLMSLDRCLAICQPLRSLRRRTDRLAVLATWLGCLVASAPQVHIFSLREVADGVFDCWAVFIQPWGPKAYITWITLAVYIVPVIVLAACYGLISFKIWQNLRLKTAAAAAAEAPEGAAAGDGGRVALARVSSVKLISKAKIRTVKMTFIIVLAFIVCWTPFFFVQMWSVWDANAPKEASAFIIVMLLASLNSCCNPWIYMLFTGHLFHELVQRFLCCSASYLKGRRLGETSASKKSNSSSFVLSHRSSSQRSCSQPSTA
T6 sequence (P41146 whole entry): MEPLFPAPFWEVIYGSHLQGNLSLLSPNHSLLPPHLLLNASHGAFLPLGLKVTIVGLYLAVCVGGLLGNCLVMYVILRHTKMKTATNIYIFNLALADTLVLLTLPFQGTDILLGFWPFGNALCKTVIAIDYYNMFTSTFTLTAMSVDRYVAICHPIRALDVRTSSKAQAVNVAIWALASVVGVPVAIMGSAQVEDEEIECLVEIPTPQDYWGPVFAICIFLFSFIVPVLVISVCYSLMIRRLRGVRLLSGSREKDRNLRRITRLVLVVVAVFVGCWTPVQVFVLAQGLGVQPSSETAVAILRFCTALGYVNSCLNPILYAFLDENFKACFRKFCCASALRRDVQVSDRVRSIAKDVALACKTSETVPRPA
T22 sequence (P35348 whole entry): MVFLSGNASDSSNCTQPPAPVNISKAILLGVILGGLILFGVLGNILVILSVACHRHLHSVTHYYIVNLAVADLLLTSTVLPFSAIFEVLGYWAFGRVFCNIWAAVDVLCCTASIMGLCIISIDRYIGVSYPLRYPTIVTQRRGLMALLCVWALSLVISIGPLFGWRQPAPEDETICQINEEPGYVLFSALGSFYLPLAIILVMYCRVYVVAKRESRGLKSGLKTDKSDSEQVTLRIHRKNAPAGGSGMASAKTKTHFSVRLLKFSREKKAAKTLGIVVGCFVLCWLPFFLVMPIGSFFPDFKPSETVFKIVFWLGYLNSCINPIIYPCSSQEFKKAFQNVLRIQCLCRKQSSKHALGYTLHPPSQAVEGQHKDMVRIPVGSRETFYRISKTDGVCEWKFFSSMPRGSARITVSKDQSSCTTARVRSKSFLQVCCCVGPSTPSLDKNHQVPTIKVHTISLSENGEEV
T35 sequence (P25101 21-427): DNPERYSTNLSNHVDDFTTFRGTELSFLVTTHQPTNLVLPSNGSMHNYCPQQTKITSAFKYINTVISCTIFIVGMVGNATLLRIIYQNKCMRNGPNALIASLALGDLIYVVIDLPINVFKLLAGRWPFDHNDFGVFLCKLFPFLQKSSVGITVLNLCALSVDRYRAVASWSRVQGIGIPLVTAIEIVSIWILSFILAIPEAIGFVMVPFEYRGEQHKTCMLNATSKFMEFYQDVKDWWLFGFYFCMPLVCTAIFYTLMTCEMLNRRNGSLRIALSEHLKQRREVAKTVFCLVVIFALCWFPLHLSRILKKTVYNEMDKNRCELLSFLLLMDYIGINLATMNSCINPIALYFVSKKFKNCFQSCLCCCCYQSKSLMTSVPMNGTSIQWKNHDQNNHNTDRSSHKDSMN
T19 sequence (Q9UBY5 whole entry, species assumed): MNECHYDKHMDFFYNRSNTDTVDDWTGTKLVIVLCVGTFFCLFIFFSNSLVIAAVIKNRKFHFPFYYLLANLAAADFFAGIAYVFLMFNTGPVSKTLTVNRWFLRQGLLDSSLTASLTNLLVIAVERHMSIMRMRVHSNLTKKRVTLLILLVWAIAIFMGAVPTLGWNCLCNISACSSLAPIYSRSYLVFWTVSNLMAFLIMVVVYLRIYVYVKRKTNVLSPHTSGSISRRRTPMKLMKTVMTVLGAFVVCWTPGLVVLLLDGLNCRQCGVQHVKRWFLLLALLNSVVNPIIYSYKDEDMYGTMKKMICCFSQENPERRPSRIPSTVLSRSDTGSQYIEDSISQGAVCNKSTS
T28 sequence (O14842 whole entry, species assumed): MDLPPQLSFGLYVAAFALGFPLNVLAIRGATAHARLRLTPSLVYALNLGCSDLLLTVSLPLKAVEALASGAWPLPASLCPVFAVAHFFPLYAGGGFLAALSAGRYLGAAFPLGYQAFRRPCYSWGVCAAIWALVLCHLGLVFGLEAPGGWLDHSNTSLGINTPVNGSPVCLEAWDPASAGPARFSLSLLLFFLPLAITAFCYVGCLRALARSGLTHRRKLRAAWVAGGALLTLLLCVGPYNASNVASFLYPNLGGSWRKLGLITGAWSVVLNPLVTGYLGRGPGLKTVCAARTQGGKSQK

Work on `CCN1C(=O)N2Cc3cc(OC)cc(OC)c3[C@@H](C)C=C2C12CCN(Cc1cccn1C)CC2` [ER-819924-01] yielded an inhibition at 1 µM (NK2) of 2.1%, an inhibition at 1 µM (ADRA2A) of 3.3% and an inhibition at 1 µM (GNRHR) of 35.8%. It also gave an inhibition at 1 µM (OPRM1) of 35%, an inhibition at 1 µM (ADRB3) of 11.4% and an inhibition at 1 µM (NOP) of 1%. The inhibition at 1 µM (OT) was 4.6%, the “% INHIBITION” value (Prostanoid EP2; CONC. 0.1 μm) was −3% and the “% INHIBITION” value (Prostanoid EP2; CONC. 1 μm) was 1%. It also gave an IC50 (EP4 [1]) of 28 nM, an inhibition at 1 µM (C3AR) of -8.2% and an inhibition at 1 µM (CGRP1) of -5.6%. It also gave an inhibition at 1 µM (P2Y1) of -37.5%, an inhibition at 1 µM (A3) of 10.6% and an inhibition at 1 µM (D2) of -4.6%. The inhibition at 1 µM (CB1) was 10.5%, the inhibition at 1 µM (BB1) was 7.1% and the “% INHIBITION” value (Prostanoid DP; CONC. 0.1 μm) was 0%. For the same compound, the “% INHIBITION” value (Prostanoid DP; CONC. 1 μm) was 13%, the inhibition at 1 µM (BB2) was 0.6% and the inhibition at 1 µM (LPA3) was 9.6%. The inhibition at 1 µM (V1A) was -3.9%, the inhibition at 1 µM (PAF) was 5.4% and the inhibition at 1 µM (ADRA1A) was 17.6%. For the same compound, the inhibition at 1 µM (TRH) was -11.1%, the inhibition at 1 µM (GPR43) was 10.6% and the inhibition at 1 µM (PK1) was -4.3%. It also gave an inhibition at 1 µM (CRF2) of -7%, an inhibition at 1 µM (MC4) of -5.1% and an inhibition at 1 µM (GPR40) of -4.6%. It also gave an inhibition at 1 µM (CCK1) of 13%, an inhibition at 1 µM (TP) of 1.8% and an inhibition at 1 µM (CCR9) of -9.1%. The inhibition at 1 µM (M5) was 10.1%, the inhibition at 1 µM (GABA) was 6% and the “activity in FLIPR functional screen versus other GPCR's” value (EP4 [2]; 1 μM, Millipore outsourced data) was “showed activity only against the EP4 receptor”. For the same compound, the inhibition at 1 µM (EP4 [2]; antagonist mode) was 100%, the “% INHIBITION” value ([3]; CONC. 0.1 μm) was −1% and the “% INHIBITION” value ([3]; CONC. 1 μm) was −5%. For the same compound, the inhibition at 1 µM (ETA) was 9%, the “% INHIBITION” value ([4]; CONC. 0.1 μm) was 3% and the “% INHIBITION” value ([4]; CONC. 1 μm) was 0%. For the same compound, the inhibition at 1 µM (S1P4) was -6.6%.
